These results are taken from article PMC5158193, “Molecular Characterization and Functional Analysis of a Novel Calcium-Dependent Protein Kinase 4 from Eimeria tenella” (PLoS ONE, 2016).

The target of the test is T1, rEtCDPK4 (Eimeria tenella, UniProt A0A165BP42).
T1 construct: gene CDPK4; fragment, ORF bp 118-1777 (cDNA 303-1962); N-terminal 6xHis (pCold I), E. coli BL21; kinase domain and all six EF hands
T1 sequence (A0A165BP42 40-592): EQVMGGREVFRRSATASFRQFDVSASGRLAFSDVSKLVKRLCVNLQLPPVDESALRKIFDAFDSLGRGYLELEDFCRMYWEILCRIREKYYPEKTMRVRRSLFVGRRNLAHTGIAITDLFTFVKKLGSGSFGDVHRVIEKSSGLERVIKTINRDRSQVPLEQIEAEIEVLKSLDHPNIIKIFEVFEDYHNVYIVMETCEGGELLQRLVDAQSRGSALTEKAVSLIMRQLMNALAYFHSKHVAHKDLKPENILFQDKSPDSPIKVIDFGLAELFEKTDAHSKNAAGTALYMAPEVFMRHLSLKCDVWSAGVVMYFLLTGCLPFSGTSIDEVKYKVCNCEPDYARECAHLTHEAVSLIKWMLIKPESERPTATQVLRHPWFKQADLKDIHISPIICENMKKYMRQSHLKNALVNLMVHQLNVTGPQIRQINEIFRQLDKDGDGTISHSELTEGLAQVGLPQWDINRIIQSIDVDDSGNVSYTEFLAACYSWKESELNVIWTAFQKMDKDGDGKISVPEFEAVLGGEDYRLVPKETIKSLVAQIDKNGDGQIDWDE
Kind of test: PepTag C1-peptide non-radioactive kinase assay, A570. Conditions: 1 mM ATP, 1.3 mM CaCl2, 10 mM MgCl2, phosphatidylserine, 47.5 μM PepTag C1-peptide, pH 7.4, 30 °C. In kind it is biochemical.
Turning to `NCCCCCCNS(=O)(=O)c1cccc2c(Cl)cccc12` [W-7], the “kinase activity at 100 μM inhibitor” value is “W-7, H-7, H-89, staurosporine, Ro-31-8220 and myristoylated peptide significantly decreased enzyme activity”.
With `O=S(=O)(NCCNC/C=C/c1ccc(Br)cc1)c1cccc2cnccc12` [H-89] the entry was “W-7, H-7, H-89, staurosporine, Ro-31-8220 and myristoylated peptide significantly decreased enzyme activity”; with `CN[C@@H]1C[C@H]2O[C@@](C)([C@@H]1OC)n1c3ccccc3c3c4c(c5c6ccccc6n2c5c31)C(=O)NC4` [staurosporine], “W-7, H-7, H-89, staurosporine, Ro-31-8220 and myristoylated peptide significantly decreased enzyme activity”; with `CC1CNCCN1S(=O)(=O)c1cccc2cnccc12` (centres unmarked) [H-7], “W-7, H-7, H-89, staurosporine, Ro-31-8220 and myristoylated peptide significantly decreased enzyme activity”.
For `Cn1cc(C2=C(c3cn(CCCSC(=N)N)c4ccccc34)C(=O)NC2=O)c2ccccc21` [Ro-31-8220], the “kinase activity at 100 μM inhibitor” value is “W-7, H-7, H-89, staurosporine, Ro-31-8220 and myristoylated peptide significantly decreased enzyme activity”.
